Where a SMILES comes first, the peptide text is derived from it. The star is where a group is joined. Succinyl(4-O-cholesteryl) = CC(C)CCC[C@@H](C)[C@H]1CC[C@H]2[C@@H]3CC=C4C[C@@H](OC(=O)CCC(=O)*)CC[C@]4(C)[C@H]3CC[C@]12C
Tests used:
[1] = test system: DC cells; test: Uptake of OVA antigen by dendritic cells (flow cytometry); assay type: cell-based, mouse; details: 3 h
Method: DC cells are the most powerful antigen presenting cells in the body, which can absorb foreign substances, process and present them to T cells to stimulate immune response. DC cells play an important role in T cell immune response and production of T cell dependent antibody. We examined the effect of DP7-C on DC presenting antigen by flow cytometry.
The experimental steps are as follows: • (1) Isolate C57/BL mouse primary bone marrow cells and incubate in the induced medium containing 10 ng/ml of GM-CSF and 10 ng/ml of IL-4 for 5 days. • (2) Add the OVA protein markers FITC, OVA or DP7-C/OVA into DC cell culture, mix well and incubate for 3 h. • (3) Collect the stimulated DC cells, wash with PBS twice, re-suspend the cells in 300 μL of PBS, and perform flow cytometry.

[2] = test system: C26 subcutaneously implanted tumor; test: Subcutaneously implanted tumor model of C26 mouse colon cancer; assay type: in vivo
Method: In order to further characterize the application potential of DP7-C micelles in tumor therapy, we established a subcutaneously implanted tumor model of C26 mouse colon cancer and used DP7-C to transmit anti-VEGF siRNA therapeutic genes for therapeutic research. • (1) On day 0, female BALB/c mice aged 6-8 weeks are subcutaneously inoculated with 0.1 mL of cell suspension (containing about 1.5×10^6 C26 cells). • (2) On day 8, when the tumor is palpable, mice are randomly divided into 4 groups, 8 mice for each group, and are labeled. • (3) Four groups of mice are intratumorally injected with 10 doses of normal saline (blank control group), blank DP7-C micelle (25 μg), DP7-C/no-sense control siRNA complex (25 μg/5 μg) or DP7-C/VEGF siRNA complex (25 μg/5 μg) respectively. • (4) On day 20, when the mice in the control group are already very weak, all the mice are killed by cervical dislocation; the tumor tissues in the abdominal cavity as well as the heart, liver, spleen, lung and kidney tissues are immediately collected, weighed and analyzed. The ascites of each group of mice is also collected and measured, and CD31 immunohistochemical staining is performed on tumor tissues of each experimental group. The collected heart, liver, spleen, lung and kidney tissues are analyzed by HE staining.

[3] = test system: multiple strains; test: Antibacterial activity in vitro (MIC); assay type: cell-based
[4] = test system: YAC-1 cells; test: NK cell killing activity after immunization (LDH release); assay type: cell-based, mouse; details: splenic lymphocytes 48 h after primary immunization
Method: Innate immunity plays an important role in anti-tumor immunity. We detected the killing activity of mouse NK cells after immunization with DP7-C adjuvant.
After 48 h of primary immunization, kill the mice by the cervical dislocation, and isolate splenic lymphocyte from the lymphocyte separation medium as effector cells.
Resuscitate and incubate YAC-1 cells, transfer one day before the experiment, and keep 2×10^6/20 ml. Stain with trypan blue. Available when activity is more than 95%.
• (1) Add target cells and effector cells into a 96-well plate (ratio of target cells to effector cells: 1:25, 1:50, 1:100, 1:200 as per 10,000 target cells per well) and incubate at 37° C. for 4 h. • (2) Centrifuge at 250 g, and take supernatant for LDH releasing test.

[5] = test system: 293T human embryonic kidney cell line; assay type: cell-based; details: 293T cells, 24 h, CCK-8
Method: Cytotoxicity of cations is one of the important factors that restrict the application of siRNA transfection. The toxicity of DP7-C micelles to 293T human embryonic kidney cell line, a normal cell, is detected through cell survival experiments. 293T cells are laid in a 96-well plate at a density of 3×10^3 cells per well, and 100 μL of DMEM/20% FBS medium is added to each well and incubated for 24 h. In the experiment, three groups are set up, i.e. DP7-C, PEI25K and Lipofectamin2000; and each group had 10 concentration gradients of 0, 12.5, 18.75, 25, 37, 50, 75, 100, 150 and 200 μg/mL respectively. The survival of the cells was detected by the CCK-8 method. After 24 h of dosing, 10 μL of CCK-8 solution is added to each well and incubated at 37° C. for 2 h. The absorption value of each well is detected at the wavelength of 630 nm and 450 nm by a microplate reader. The standard curve is drawn and IC50 is calculated, and the average value of 6 groups of parallel experiments is taken as the final result.

SMILES: CC[C@H](C)[C@H](NC(=O)[C@H](CCCNC(=N)N)NC(=O)[C@H](Cc1c[nH]c2ccccc12)NC(=O)[C@H](CCC(N)=O)NC(=O)[C@@H](NC(=O)CCC(=O)O[C@H]1CC[C@@]2(C)C(=CC[C@H]3[C@@H]4CC[C@H]([C@H](C)CCCC(C)C)[C@@]4(C)CC[C@@H]32)C1)C(C)C)C(=O)N[C@@H](CCCNC(=N)N)C(=O)N[C@H](C(=O)N[C@@H](C)C(=O)N[C@H](C(=O)N[C@H](C(=O)N[C@@H](CCCNC(=N)N)C(=O)N[C@@H](CCCCN)C(N)=O)[C@@H](C)CC)C(C)C)C(C)C [DP7-C, Chol-suc-VQWRIRVAVIRK-NH2] ({Succinyl(4-O-cholesteryl)}-VQWRIRVAVIRK-NH2)
- uptake of antigen by DC cells ([1]; 2.5 μg/ml): significantly increase
- uptake of OVA by DC cells ([1]; 40 μg/ml): slightly enhanced
- HE staining of major organ tissues ([2]; heart, liver, spleen, lung, kidney): no significant pathological changes
- average tumor weight (unit mm^3) ([2]; intratumoral injection, 10 doses): 357.64±30.56 mm^3
- MIC [3]: > 1024 µg/mL
- NK cell killing activity [4]: slightly strong NK cell killing activity
- IC50 [5]: exceeding 200 μg/mL

— patent publication US20250249110A1, “ANTIMICROBIAL PEPTIDE DERIVATIVE AND USE THEREOF” (SICHUAN UNIVERSITY, priority 2016, published 2025)
